Target: T1, Human TLR9 (Homo sapiens, UniProt Q9NR96)
T1 sequence (Q9NR96 26-1032): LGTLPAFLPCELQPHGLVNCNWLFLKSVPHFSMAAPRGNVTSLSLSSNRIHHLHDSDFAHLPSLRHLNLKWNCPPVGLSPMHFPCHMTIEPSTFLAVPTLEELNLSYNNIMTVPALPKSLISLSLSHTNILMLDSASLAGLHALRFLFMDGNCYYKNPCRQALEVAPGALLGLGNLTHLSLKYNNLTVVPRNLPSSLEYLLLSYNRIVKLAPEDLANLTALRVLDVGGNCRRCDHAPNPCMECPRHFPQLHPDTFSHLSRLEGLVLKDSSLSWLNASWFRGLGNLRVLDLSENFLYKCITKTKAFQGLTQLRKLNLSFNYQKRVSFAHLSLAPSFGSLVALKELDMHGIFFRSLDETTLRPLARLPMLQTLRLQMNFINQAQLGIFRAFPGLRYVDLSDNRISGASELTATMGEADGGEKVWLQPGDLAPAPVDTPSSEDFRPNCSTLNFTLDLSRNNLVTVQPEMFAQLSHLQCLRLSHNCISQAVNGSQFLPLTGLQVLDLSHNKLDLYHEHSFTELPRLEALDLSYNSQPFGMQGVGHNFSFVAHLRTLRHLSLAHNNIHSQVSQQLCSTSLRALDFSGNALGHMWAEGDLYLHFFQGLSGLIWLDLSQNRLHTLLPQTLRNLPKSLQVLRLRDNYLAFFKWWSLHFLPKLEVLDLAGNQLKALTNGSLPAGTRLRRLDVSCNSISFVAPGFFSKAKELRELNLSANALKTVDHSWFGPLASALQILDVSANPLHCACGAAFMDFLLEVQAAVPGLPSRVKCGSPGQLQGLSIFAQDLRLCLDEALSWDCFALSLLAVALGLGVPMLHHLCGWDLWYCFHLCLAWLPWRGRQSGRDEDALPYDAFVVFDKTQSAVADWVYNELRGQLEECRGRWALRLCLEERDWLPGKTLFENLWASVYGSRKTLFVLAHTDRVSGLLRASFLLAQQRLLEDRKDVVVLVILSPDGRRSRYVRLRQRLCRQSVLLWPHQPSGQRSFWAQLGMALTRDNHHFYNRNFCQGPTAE
Experiment: HEK-293 NF-kappaB luciferase reporter assay, CpG-ODN stimulus
Assay type: cell-based
Design: engineered to stably and individually express human TLR4, TLR7 or TLR9 full-length ORF cDNAs; expressed in transfected cells; host or cells: HEK-293 (ATCC) with ELAM-1 NF-kappaB luciferase reporter
Conditions: ligand CpG-ODN, analyte NFkB-luciferase
Description: In vitro pharmacology: HEK-293 cells (ATCC) were engineered to stably express a NF-kappaB transcription factor inducible E-selectin (ELAM-1) luciferase reporter derived from the plasmid pGL3 (Promega) containing base pairs −2241 bp to −254 bp from the promoter of the human E-selectin gene (Accession No. NM_000450). These cells were then subsequently engineered to stably and individually express human TLR4, TLR7 or TLR9 full-length ORF cDNAs. Human TLR4 cDNA (Accession No. NM_138554) was cloned into pcDNA 3.0 expression vector (Invitrogen). TLR4 transfected cells were also engineered to express human MD-2 co-receptor [MD-2 cDNA (Accession No. NM_015364) was cloned into the pEF-BOS vector] and were supplemented with 10 nM soluble CD14 (R&D Systems) in the media to optimize LPS responsiveness. Human TLR9 cDNA (Accession No. NM_017442) was cloned into the pBluescript II KS vector (Agilent). Human TLR7 cDNA (Accession No. NM_016562) was obtained from OriGene. HEK-293 cells stably expressing human TLR8 (Accession No. NM_138636) or mouse TLR7 (Accession No. NM_133211) were purchased from InvivoGen and were then stably transfected with pNiFty2(NF-kappaB)-luciferase reporter plasmid (InvivoGen). […]

COc1ccc([C@@H]2C[C@H](C(F)(F)F)n3nc(-c4ccc(C(=O)N5CCNCC5)cc4)cc3N2)cc1OC [ER-892887, (4-((5S,7R)-5-(3,4-dimethoxyphenyl)-7-(trifluoromethyl)-4,5,6,7-tetrahydropyrazolo[1,5-a]pyrimidin-2-yl)phenyl)(piperazin-1-yl)methanone]
IC50: > 10 µM

Reference: US9126999B2, “Tetrahydropyrazolopyrimidine compounds” (EISAI R&D MANAGEMENT CO., LTD., priority 2012, dated 2015)
